Source: publication PMC11219766 (Nature Communications, 2024)

The molecules below were run against T1, CIB1 (Homo sapiens, UniProt Q99828) (assay: not given).
T1 sequence (Q99828 whole entry): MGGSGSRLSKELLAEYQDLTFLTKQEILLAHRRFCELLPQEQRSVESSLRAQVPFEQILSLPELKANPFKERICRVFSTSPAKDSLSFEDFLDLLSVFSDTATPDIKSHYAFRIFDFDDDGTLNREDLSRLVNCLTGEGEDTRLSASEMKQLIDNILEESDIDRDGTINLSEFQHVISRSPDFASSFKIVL
With `COc1cccc(OCCCn2cc(C=C3C(=O)NC(=O)N(Cc4ccco4)C3=O)c3ccccc32)c1` [UNC10245380A, COc1cccc(OCCCn2cc(C=C3C(=O)NC(=O)N(Cc4ccco4)C3=O)c3ccccc23)c1] the Hill slope was 1.5–2.5.

The molecules below were run against T1, CIB1 (assay: biochemical).
Source text: Binding of the 56 purchased compounds was experimentally assessed in a time-resolved fluorescence energy transfer (TR-FRET) assay (see Fig. 3A and Supplementary data 1). Briefly, it serves as a displacement assay using an AlexaFluor-labeled cyclic CIB1-binding peptide and a Europium (Eu)-labeled Streptavidin donor for attachment to the AviTag biotinylated CIB1 protein (described previously in Puhl et al. and Haberman et al.[47],[62]).
A CIB1 TR-FRET assay uses an AlexaFluor-labeled cyclic CIB1-binding peptide and a Europium (Eu)-labeled Streptavidin donor for attachment to the AviTag biotinylated CIB1 protein. […] Compounds were dispensed into 384-well plates using a Mosquito HTS nanoliter instrument (TTP LABTech) as 3-fold serial dilutions (100x in DMSO, 0.1 μL) for final concentrations ranging from 100 μM to 0.5 nM. Biotinylated CIB1 was diluted to a final concentration of 3 nM in assay buffer (20 mM) TRIS pH 7.5, 150 mM NaCl, 1 mM CaCl, 1 mM CHAPS, and 1 mM DTT (added fresh each time), and 5 μL of diluted protein was added to the wells of the assay plate using a Multidrop Combi Reagent Dispenser (Thermo Scientific) and incubated at room temperature for 20 min. 5 μL detection solution containing 2 nM Lance Eu-Streptavidin (Perkin Elmer) and 30 nM Alexa647-CIB1-phage peptide diluted in assay buffer was added to the wells and incubated 30–60 min at room temperature protected from light. TR-FRET signals were measured using an Envision Multilabel Plate Reader (PerkinElmer; Eu excitation 320 nm, Eu emission 615 nm, Alexa dye emission 665 nm). […] Inhibition curves were analyzed using a four-parameter non-linear curve fit using ScreenAble software, and the mean and standard deviation were calculated. Publication curves were averaged and fit with a four-parameter non-liner curve fit using GraphPad Prism.
For `O=C(NCc1ccc2c(c1)OCO2)C1CCN(S(=O)(=O)c2cccc3nsnc23)CC1` [UNC10245381A, O=C(NCc1ccc2OCOc2c1)C1CCN(CC1)S(=O)(=O)c1cccc2nsnc12], the IC50 was 84 µM.
For `CC(c1nnc(SCC(=O)Nc2ccc(Oc3ccccc3)cc2)n1C)N1C(=O)COc2ccccc21` (centres unmarked) [UNC10245386A, CC(N1C(=O)COc2ccccc12)c1nnc(SCC(=O)Nc2ccc(Oc3ccccc3)cc2)n1C], the IC50 was 33 µM.
Work on `CC(c1cc(-c2ccccc2)[nH]n1)N(C)C(=O)C1CCN(c2cccc3c2C(=O)N(Cc2cccs2)C3=O)CC1` (centres unmarked) [UNC10245397A, CC(N(C)C(=O)C1CCN(CC1)c1cccc2C(=O)N(Cc3cccs3)C(=O)c12)c1cc([nH]n1)-c1ccccc1] yielded an IC50 of 24 µM.
For `O=C(Nc1cccc2ncccc12)c1cccc(NS(=O)(=O)c2ccc3c(c2)OCCCO3)c1` [UNC10245399A, O=C(Nc1cccc2ncccc12)c1cccc(NS(=O)(=O)c2ccc3OCCCOc3c2)c1], the IC50 was 59 µM.
Molecule `Cc1ccc(C)c(S(=O)(=O)N2CCN(C(=O)CSc3nnc(-c4ccc5c(c4)OCO5)n3-c3ccccc3)CC2)c1` [UNC10245404A, Cc1ccc(C)c(c1)S(=O)(=O)N1CCN(CC1)C(=O)CSc1nnc(-c2ccc3OCOc3c2)n1-c1ccccc1] has an IC50 of 14 µM.
`Cc1noc(C)c1COc1cccc(C(=O)Nc2cccc(S(=O)(=O)Nc3cccc(C(F)(F)F)c3)c2)c1` [UNC10245406A, Cc1noc(C)c1COc1cccc(c1)C(=O)Nc1cccc(c1)S(=O)(=O)Nc1cccc(c1)C(F)(F)F] gave an IC50 of 39 µM.
`COc1cccc(C(=O)N(CC(=O)Nc2ccc(N3CCN(C(=O)c4ccc(C)cc4)CC3)cc2)Cc2ccc(F)cc2)c1` [UNC10245410A, COc1cccc(c1)C(=O)N(CC(=O)Nc1ccc(cc1)N1CCN(CC1)C(=O)c1ccc(C)cc1)Cc1ccc(F)cc1] gave an IC50 of 11 µM.
`CN(Cc1ccco1)C(=O)c1ccc(COc2ccc3c(c2)C(c2cccc(F)c2)N(C(=O)C2CC2)CC3)o1` (centres unmarked) [UNC10245413A, CN(Cc1ccco1)C(=O)c1ccc(COc2ccc3CCN(C(c4cccc(F)c4)c3c2)C(=O)C2CC2)o1] was tested, and the IC50 was 48 µM.
With `CCOC(=O)c1cc(-c2ccc(N3CCN(C(=O)COc4ccccc4)CC3)cc2)n(-c2ccccc2OC)n1` [UNC10245416A, CCOC(=O)c1cc(-c2ccc(cc2)N2CCN(CC2)C(=O)COc2ccccc2)n(n1)-c1ccccc1OC] the IC50 was 12 µM.
`COc1cccc(CNC(=O)C2CCN(C(=O)[C@@H](Cc3ccccc3)NC(=O)COc3ccccc3)CC2)c1` [UNC10245418A, COc1cccc(CNC(=O)C2CCN(CC2)C(=O)[C@@H](Cc2ccccc2)NC(=O)COc2ccccc2)c1] gave an IC50 of 93 µM.
`COc1ccccc1N1CCN(C(=O)CCCc2nnc3n(CC(C)C)c(=O)c4sccc4n23)CC1` [UNC10245420A, COc1ccccc1N1CCN(CC1)C(=O)CCCc1nnc2n(CC(C)C)c(=O)c3sccc3n12] showed an IC50 of 87 µM.
For `CCOc1ccccc1NC(=O)Nc1cccc(OCc2cc(=O)n3ccccc3n2)c1` [UNC10245432A, CCOc1ccccc1NC(=O)Nc1cccc(OCc2cc(=O)n3ccccc3n2)c1], the IC50 was 43 µM.
Molecule `Cc1cc(NC(=O)CSc2nc3ccccc3c(=O)n2CC2CCC(C(=O)NCc3ccccc3Cl)CC2)n[nH]1` (centres unmarked) [UNC10245433A, Cc1cc(NC(=O)CSc2nc3ccccc3c(=O)n2CC2CCC(CC2)C(=O)NCc2ccccc2Cl)n[nH]1] has an IC50 of 8.8 µM.
`CC1Cc2ccccc2N1C(=O)CC1CCN(S(=O)(=O)c2ccc3c(c2)oc(=O)n3C)CC1` (centres unmarked) [UNC10245457A, CC1Cc2ccccc2N1C(=O)CC1CCN(CC1)S(=O)(=O)c1ccc2n(C)c(=O)oc2c1] showed an IC50 of 44 µM.
`COc1ccccc1OCCC1CCN(C(=O)C2CCN(S(=O)(=O)c3cccc4nonc34)CC2)C1` (centres unmarked) [UNC10245474A, COc1ccccc1OCCC1CCN(C1)C(=O)C1CCN(CC1)S(=O)(=O)c1cccc2nonc12] gave an IC50 of 75 µM.
Work on `COc1ccccc1OCCCn1cc(C=C2C(=O)NC(=O)N(Cc3ccco3)C2=O)c2ccccc21` [UNC10245533, COc1ccccc1OCCCn1cc(C=C2C(=O)NC(=O)N(Cc3ccco3)C2=O)c2ccccc12] yielded an IC50 of 9.8 µM.
`O=C1NC(=O)N(Cc2ccco2)C(=O)C1=Cc1cn(CCCOc2ccccc2)c2ccccc12` [UNC10245534, O=C1NC(=O)C(=Cc2cn(CCCOc3ccccc3)c3ccccc23)C(=O)N1Cc1ccco1] was tested, and the IC50 was 24 µM.
Molecule `Cc1cccc(OCCCn2cc(C=C3C(=O)NC(=O)N(Cc4ccco4)C3=O)c3ccccc32)c1` [UNC10245535, Cc1cccc(OCCCn2cc(C=C3C(=O)NC(=O)N(Cc4ccco4)C3=O)c3ccccc23)c1] has an IC50 of 6.1 µM.
`O=C1NC(=O)N(Cc2ccco2)C(=O)C1=Cc1cn(CCCOc2ccccc2Cl)c2ccccc12` [UNC10245536, Clc1ccccc1OCCCn1cc(C=C2C(=O)NC(=O)N(Cc3ccco3)C2=O)c2ccccc12] showed an IC50 of 12 µM.
Work on `COc1ccccc1OCCn1cc(C=C2C(=O)NC(=O)N(Cc3ccco3)C2=O)c2ccccc21` [UNC10245537, COc1ccccc1OCCn1cc(C=C2C(=O)NC(=O)N(Cc3ccco3)C2=O)c2ccccc12] yielded an IC50 of 22 µM.
Molecule `COc1ccc(OCCn2cc(C=C3C(=O)NC(=O)N(Cc4ccco4)C3=O)c3ccccc32)cc1` [UNC10245538, COc1ccc(OCCn2cc(C=C3C(=O)NC(=O)N(Cc4ccco4)C3=O)c3ccccc23)cc1] has an IC50 of 19 µM.
In the case of `COc1ccc(OCCCn2cc(C=C3C(=O)NC(=O)N(Cc4ccco4)C3=O)c3ccccc32)cc1` [UNC10245539, COc1ccc(OCCCn2cc(C=C3C(=O)NC(=O)N(Cc4ccco4)C3=O)c3ccccc23)cc1], the IC50 is reported as 18 µM.
`Cc1cc(OCCCn2cc(C=C3C(=O)NC(=O)N(Cc4ccco4)C3=O)c3ccccc32)cc(C)c1Cl` [UNC10245540, Cc1cc(OCCCn2cc(C=C3C(=O)NC(=O)N(Cc4ccco4)C3=O)c3ccccc23)cc(C)c1Cl] was tested, and the IC50 was 23 µM.
Molecule `Cc1cc(C)cc(OCCCn2cc(C=C3C(=O)NC(=O)N(Cc4ccco4)C3=O)c3ccccc32)c1` [UNC10245541, Cc1cc(C)cc(OCCCn2cc(C=C3C(=O)NC(=O)N(Cc4ccco4)C3=O)c3ccccc23)c1] has an IC50 of 4.3 µM.
In the case of `COc1cccc(OCCn2cc(C=C3C(=O)NC(=O)N(Cc4ccco4)C3=O)c3ccccc32)c1` [UNC10245542, COc1cccc(OCCn2cc(C=C3C(=O)NC(=O)N(Cc4ccco4)C3=O)c3ccccc23)c1], the IC50 is reported as 50 µM.
